In one data set the test system is oxidized lipid products. Briefly: Human clinical trial, scavenging of oxidized lipid products. In kind it is in vivo. The source says: Moreover, the pharmacological effect of the composition of the instant invention as a replacement of the statin model was unexpected. […] Reason: the instant invention physiologically provides more rate-limiting L-cysteine available in the cell together with the other constituents of glutathione.

For data set [1] the following is noted: as compared to L-cysteine; cited from earlier work.

As to `CC(=O)N[C@@H](CS)C(=O)O` [N-acetylcysteine], the “scavenging of oxidized lipid products” value in the data set with oxidized lipid products amounted to 1%. With `N[C@@H](CSSC[C@H](N)C(=O)O)C(=O)O` [L-cystine], in data set [1], the water solubility entry is “water insoluble”.

The record behind these values is US20240108683A1, “Method for Side Effect Reduction in the Use of Statins Via Physiologically Synthesized Glutathione” (Proimmune Co. LLC, priority 2014, published 2024).
